Experimental data published in patent EP0165492B1, “Process for manufacturing preparations promoting wound healing, and such preparations” (BERLIN-CHEMIE Aktiengesellschaft, priority 1984, dated 1992).

Columns and labels:
Kapillaren = settings: conclusion from morphometry (Tables 11 and 12); controls = 100 %
Excerpt: Mit Hilfe des Punktzählverfahrens (BUNTROCK et al: Exper. Pathol. 21 (1982) 62-67) wurden die prozentualen Volumenanteile der Kapillaren (VVCAP), unterteilt nach Endothelzellen (VVEC), Endothelzellkerne (VVNEC), Endothelsellzytoplasma (VVCYT) einerseits und Kapillarlumen (VVCAPL) andererseits bestimmt. Die Kontrollen wurden wiederum mit 100 % festgelegt.
Die Ergebnisse sind in der Tabelle 12 dargestellt.

Endothelzellen = settings: versus rats treated with isotonic saline (= 100 %); treatment as in Example 1
Description: Unter die Rückenhaut von 2 Monate alten Ratten mit einem Körpergewicht von 220 bis 270 g werden Polyvinylringe mit einem Basisdurchmesser von 19 mm unter sterilen Kautelen implantiert (Test nach RUDAS, modifiziert nach BECK, WIEGERS-HAUSEN und JUNG, Acta bio. med. Germ. 13, (1964)).
Der Ring liegt auf der Fascis der Rückenmuskulatur. Am Operationstag werden je 1,0 ml sterile, isotone Kochsalzlösung (Kontrolle) bzw. die gleiche Menge an Kochsalzlösung mit den darin enthaltenen Wirkstoffen appliziert. Die Wunde der Rückenhaut über dem Ring wird danach verschlossen. Am 2. bzw. am 2., 4. und 6. Tag post operationem (p. op.) erfolgen nochmalige Injektionen durch die Haut in den Ring, wobei jeweils 0,2 ml sterile, isotone Kochsalzlösung mit jeweils 20 % der am Operationstag gegebenen Wirkstoffmenge appliziert werden. Im Fall der Kontrolle erfolgt eine Injektion von 0,2 ml Kochsalzlösung ohne Wirkstoff.
Als Kontrolltiere dienten mit isotoner Kochsalzlösung behandelte Ratten, deren Zählwerte gleich 100 % gesetzt wurden. […] Das Vorgehen der Behandlung entspricht dem Beispiel 1.

[1] = system: experimentell gesetzte Wunden; settings: intraperitoneal, 20 mg/kg Ratte; cited from earlier work
[2] = system: durch Zahnextraktion entstandene Wunden; settings: local application (Salbe, Lutschtabletten); cited from earlier work

Substance | Angiogenese fördernde Wirkung (Kapillaren) | Anzahl der Endothelzellkerne der Kapillaren (Endothelzellen) | Wundheilung [1] | Wundheilung [2]
N-4-Nitrobenzylocarbonyl-lysyl-Prolin-Hydrochlorid [Lys[Z(NO2)]-Pro·HCl] | Angiogenese fördernde Wirkung | signifikante Zunahme | – | –
ß-Alanyl-L-Histidin [L-Carnosin] | – | – | günstig beeinflussen | günstig beeinflussen
